In PubChem BioAssay AID248 (DTP/NCI, 2004):
Where “and” joins values, the source holds several entries; their conditions need not be identical. Equal entries are not always repeated. Toxic doses and inconclusive results are not listed. Rule as the data show it: active = T/C of 150% or more; inactive = T/C below 125%.

Tested on: L1210 leukemia ip in BDF1 mice, survival T/C
Assay: NCI In Vivo Anticancer Drug Screen. Data for tumor model L1210 Leukemia (intraperitoneal) in B6D2F1 (BDF1) mice
Conditions: endpoint: mean survival time, higher = longer survival
Method in brief: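 Value reflects the ratio of survival in compound-treated mice to survival in vehicle-treated controls, with both groups carrying the same transplanted tumor.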

[1] = dose: 25.0 mg/kg/injection, schedule: Q04DX003 (ip), vehicle: saline
[2] = dose: 50.0 mg/kg/injection, schedule: Q04DX003 (ip), vehicle: saline
[3] = dose: 100.0 mg/kg/injection, schedule: Q04DX003 (ip), vehicle: saline
[4] = dose: 200.0 mg/kg/injection, schedule: Q04DX003 (ip), vehicle: saline
[5] = dose: 100.0 mg/kg/injection, schedule: Q01DX001 (ip), vehicle: saline
[6] = dose: 200.0 mg/kg/injection, schedule: Q01DX001 (ip), vehicle: saline
[7] = dose: 400.0 mg/kg/injection, schedule: Q01DX001 (ip), vehicle: saline
[8] = dose: 100.0 mg/kg/injection, schedule: Q01DX009 (ip), vehicle: saline with Tween-80
[9] = dose: 200.0 mg/kg/injection, schedule: Q01DX009 (ip), vehicle: saline with Tween-80
[10] = dose: 100.0 mg/kg/injection, schedule: Q01DX009 (ip), vehicle: Klucel (hydroxypropylcellulose) (HPC)
[11] = dose: 100.0 mg/kg/injection, schedule: Q04DX003 (ip), vehicle: Klucel (hydroxypropylcellulose) (HPC)
[12] = dose: 200.0 mg/kg/injection, schedule: Q01DX009 (ip), vehicle: Klucel (hydroxypropylcellulose) (HPC)
[13] = dose: 200.0 mg/kg/injection, schedule: Q04DX003 (ip), vehicle: Klucel (hydroxypropylcellulose) (HPC)
[14] = dose: 400.0 mg/kg/injection, schedule: Q01DX009 (ip), vehicle: Klucel (hydroxypropylcellulose) (HPC)
[15] = dose: 400.0 mg/kg/injection, schedule: Q04DX003 (ip), vehicle: Klucel (hydroxypropylcellulose) (HPC)
[16] = dose: 100.0 mg/kg/injection, schedule: Q04DX003 (ip), vehicle: saline with Tween-80
[17] = dose: 200.0 mg/kg/injection, schedule: Q04DX003 (ip), vehicle: saline with Tween-80
[18] = dose: 400.0 mg/kg/injection, schedule: Q04DX003 (ip), vehicle: saline with Tween-80
[19] = dose: 100.0 mg/kg/injection, schedule: Q04DX002 (ip), vehicle: Klucel (hydroxypropylcellulose) (HPC)
[20] = dose: 200.0 mg/kg/injection, schedule: Q04DX002 (ip), vehicle: Klucel (hydroxypropylcellulose) (HPC)
[21] = dose: 400.0 mg/kg/injection, schedule: Q04DX002 (ip), vehicle: Klucel (hydroxypropylcellulose) (HPC)
[22] = dose: 75.0 mg/kg/injection, schedule: Q01DX001 (ip), vehicle: other
[23] = dose: 150.0 mg/kg/injection, schedule: Q01DX001 (ip), vehicle: other
[24] = dose: 300.0 mg/kg/injection, schedule: Q01DX001 (ip), vehicle: other
[25] = dose: 400.0 mg/kg/injection, schedule: Q01DX009 (ip), vehicle: saline with Tween-80

Measured: T/C

C=CCN(CC=C)P(=O)(OCC)OCC
inactive: dose: 12.5 mg/kg/injection, schedule: Q04DX003 (ip), vehicle: saline 105 % of control | dose: 25.0 mg/kg/injection, schedule: Q01DX009 (ip), vehicle: saline 97 % of control and 100 % of control | [1] 112 % of control | dose: 50.0 mg/kg/injection, schedule: Q01DX009 (ip), vehicle: saline 98 % of control and 105 % of control | [2] 108 % of control | dose: 100.0 mg/kg/injection, schedule: Q01DX009 (ip), vehicle: saline 104 % of control and 91 % of control | [3] 105 % of control | dose: 200.0 mg/kg/injection, schedule: Q01DX009 (ip), vehicle: saline 97 % of control and 92 % of control | [4] 94 % of control

CCOC(=O)c1c(C)c(Br)c(O)c(Br)c1O
inactive: [5] 98 % of control | dose: 100.0 mg/kg/injection, schedule: Q04DX003 (ip), vehicle: other 86 % of control | [6] 91 % of control | dose: 200.0 mg/kg/injection, schedule: Q04DX003 (ip), vehicle: other 100 % of control | [7] 103 % of control | dose: 400.0 mg/kg/injection, schedule: Q04DX003 (ip), vehicle: other 106 % of control

CC[S+](CC)CC
inactive: [3] 95 % of control | [4] 95 % of control

CC(C)C(=O)Nc1cccc(O)c1
inactive: [8] 90 % of control | [9] 90 % of control

COc1ccc(C=O)c(O)c1
inactive: [10] 92 % of control | [11] 97 % of control | [12] 103 % of control | [13] 101 % of control | [14] 95 % of control | [15] 105 % of control

CCCCn1c(N)n[nH]c1=S
inactive: [16] 100 % of control | [17] 90 % of control | [18] 94 % of control

CC(=O)c1ccccc1[N+](=O)[O-]
inactive: [16] 107 % of control | [17] 96 % of control | [18] 94 % of control

O=C(Nc1cc(C(F)(F)F)ccc1Cl)c1ccc(Cl)cc1
inactive: [10] 110 % of control | [3] 103 % of control | [12] 94 % of control | [4] 114 % of control | [14] 94 % of control | dose: 400.0 mg/kg/injection, schedule: Q04DX003 (ip), vehicle: saline 106 % of control

Cc1ccc(Cl)cc1NS(=O)(=O)c1cccc([N+](=O)[O-])c1
inactive: [8] 94 % of control | [9] 90 % of control

Nc1ccc2c(ccc3ccc4ccccc4c32)c1
inactive: dose: 75.0 mg/kg/injection, schedule: Q01DX001 (ip), vehicle: carboxymethylcellulose (CMC) 97 % of control

Cc1c(N)c(C)c(-c2c(O)c(Br)c(C)c(O)c2Br)c(C)c1Br
inactive: dose: 100.0 mg/kg/injection, schedule: Q01DX001 (ip), vehicle: Klucel (hydroxypropylcellulose) (HPC) 93 % of control | [11] 102 % of control | dose: 200.0 mg/kg/injection, schedule: Q01DX001 (ip), vehicle: Klucel (hydroxypropylcellulose) (HPC) 98 % of control | [13] 96 % of control | dose: 400.0 mg/kg/injection, schedule: Q01DX001 (ip), vehicle: Klucel (hydroxypropylcellulose) (HPC) 87 % of control | [15] 94 % of control

Nc1nc(N)c(-c2ccc(Cl)c(Cl)c2)c(C[P+](c2ccccc2)(c2ccccc2)c2ccccc2)n1
inactive: dose: 75.0 mg/kg/injection, schedule: Q01DX001 (ip), vehicle: saline 97 % of control

O=C1CSCc2ccccc21
inactive: [19] 103 % of control | [20] 95 % of control | [21] 95 % of control

O=C1NC(=O)C([n+]2ccccc2)=C1[O-]
inactive: [1] 110 % of control | [2] 110 % of control | [3] 94 % of control and 100 % of control | [4] 96 % of control

CC(=O)OC1CC2C(CCC3(C)C(C(C)=O)CCC23)C2(C)CCC(O)C=C12 (configuration not stated)
inactive: [22] 101 % of control | [23] 98 % of control | [24] 103 % of control

COC(F)(F)C(Cl)Cl
inactive: [5] 95 % of control | [6] 101 % of control | [7] 95 % of control

Cc1ccn2c(=O)c(CCBr)c(C)nc2c1
inactive: dose: 4.7 mg/kg/injection, schedule: Q01DX009 (ip), vehicle: saline 101 % of control | dose: 9.4 mg/kg/injection, schedule: Q01DX009 (ip), vehicle: saline 100 % of control | dose: 18.8 mg/kg/injection, schedule: Q01DX009 (ip), vehicle: saline 91 % of control | dose: 18.8 mg/kg/injection, schedule: Q04DX003 (ip), vehicle: saline 94 % of control

O=C(/C=C/c1ccccc1)c1ccc([N+](=O)[O-])cc1
inactive: [19] 94 % of control | [20] 94 % of control | [21] 108 % of control

O=C1NC(=O)c2ccc(S)c3cccc1c23
inactive: [8] 94 % of control | [9] 90 % of control | [25] 97 % of control

COc1ccc(C(=O)c2ccccc2)c(OC(=O)Nc2ccc(Cl)cc2)c1
inactive: [10] 109 % of control | [12] 105 % of control | [14] 100 % of control

Cc1ccc(C)c(NC(=O)N2CCCCC2C)c1 (configuration not stated)
inactive: [10] 101 % of control | [11] 98 % of control | [12] 101 % of control | [13] 102 % of control | [14] 97 % of control | [15] 100 % of control

O=C(O)c1cc(N=Nc2ccc(S(=O)(=O)Nc3nccs3)cc2)ccc1O
inactive: dose: 100.0 mg/kg/injection, schedule: Q01DX001 (ip), vehicle: carboxymethylcellulose (CMC) 95 % of control | dose: 200.0 mg/kg/injection, schedule: Q01DX001 (ip), vehicle: carboxymethylcellulose (CMC) 95 % of control | dose: 400.0 mg/kg/injection, schedule: Q01DX001 (ip), vehicle: carboxymethylcellulose (CMC) 101 % of control

ClC12OOC(c3ccccc3)(O1)C(c1ccccc1)c1ccccc12 (configuration not stated)
inactive: [11] 93 % of control | [13] 98 % of control | [15] 98 % of control

O=C1CCC2=C3C4CCCCC4C(=O)C4CCCC(OC2C1)C34 (configuration not stated)
inactive: [22] 105 % of control | [23] 94 % of control | [24] 89 % of control

CN(CCO)C(=O)c1ccc([N+](=O)[O-])cc1
inactive: [11] 91 % of control | [13] 88 % of control | [15] 107 % of control

O=C(O)C1=CC2C3C=CC(C(=O)O)(C3)C2C1 (configuration not stated)
inactive: [8] 96 % of control | [16] 101 % of control | [9] 96 % of control | [17] 102 % of control | [25] 94 % of control | [18] 98 % of control
